In patent US6967200B2, “Remedies for cirrhosis” (Shionogi & Co., Ltd., priority 2000, dated 2005):

Target: T1, Human type-X sPLA2 (Homo sapiens, UniProt O15496)
T1 construct: made in house; host or cells: CHO cells stably transfected with a pSVL SV40 late promoter expression vector; unpurified culture supernatant used as the enzyme source
T1 sequence (O15496 43-165): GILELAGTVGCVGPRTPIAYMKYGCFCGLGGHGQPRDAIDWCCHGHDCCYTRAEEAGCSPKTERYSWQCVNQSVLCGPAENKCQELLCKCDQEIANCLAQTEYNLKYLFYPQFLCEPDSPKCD
Assay: type-X sPLA2 inhibition test (chromogenic assay, diheptanoylthio PC substrate)
Type: biochemical
Conditions: diheptanoylthio PC 1 mM, 30 min at 40° C., pH 7.5, absorbance at 405 nm
Description: cDNA sequence encoding human type-X sPLA2 (Cupillard et al., J. Biol. Chem, 1997, 272, 15745-15752) was inserted into the downstream region of the promoter of pSVL SV40 Late Promoter Expression Vector (Amersham Pharmacia Biotech Inc.) that is an expression vector for mammalian cells. The obtained expression vector was transfected into the host CHO cells with a LipofectAMINE reagent (Gibco BRL Inc.) according to the manufacture's instruction to obtain the CHO cells stably expressing human type-X sPLA2.
In order to identify and evaluate an inhibitor of type-X sPLA2, the following chromogenic assay is utilized. This assay has been applied for high volume screening using a 96-well microtiterplate. A general explanation for this assay is described in “Analysis of Human Synovial Fluid Phospholipase A2 on Short Chain Phosphatidylcholine-Mixed Micelles: Development of a Spectrophotometric Assay Suitable for a Micortiterplate Reader” (Analytical Biochemistry, 204, pp 190-197, 1992 by Laure. J. Reynolds. Lori L. Hughes and Edward A. Dennis.
Human type-X sPLA2 was incubated (30 min at 40° C. (15 μl/well)) with diheptanoylthio PC (1 mM) in the presence of Triton X-100 (0.3 mM) and 5,5′-dithiobis(2-nitrobenzoic acid) (125 μM) in Tris-HCl buffer (25 mM, pH 7.5) containing CaCl2 (10 mM), KCl (100 mM), and bovine serum albumin (1.0 mg/mL). […]

IC50: 5 nM
SMILES: NC(=O)C1=CCCc2c1c1c(OCC(=O)O)nccn1c2Cc1ccccc1 [Compound 7]
